Here are results for one substance from patent publication US11479814B2, “Compounds for use in PCR systems and applications thereof” (LIFE TECHNOLOGIES CORPORATION, priority 2013, dated 2022).

For this assay, the system named is polymerase. In words: Amplification plots and Cq of gene targets, Dt4 compared with Tween 20 and Brij-58. The assay is classed as biochemical. The settings on record: B2M, GAPDH, RPLPO; FIGS. 16-18. From the text:
All amplification plots shown herein graphically represent target nucleic acid amplification as ΔRn (y-axis) as a function of cycle number (x-axis).
FIGS. 7A through 7D and FIGS. 8A through 8D provide a comparison between Dt4 and Tween® 20 in amplifying four different targets (B2M, GAPDH, RPLPO, and GUSB).
FIG. 9 provides a comparison between Dt4 and Tween® 20 in amplifying various different targets.
FIGS. 11A and 11B, FIGS. 12A and 12B, FIGS. 13A and 13B, FIGS. 14A and 14B, FIGS. 15A and 15B show amplification plots comparing the activity of Dt4 to Brij-58 and Tween® 20 at various concentrations in amplifying HPRT1 or PPIA.
FIGS. 16-18 illustrate that Dt4 may be used at a lower concentration than Tween® 20 in various reactions (e.g., 0.002% Dt4 compared to 0.01% Tween® 20).

Take Tween® 20: the “concentration used in amplification reactions” value was 0.01%.
